These results are taken from ChEMBL document CHEMBL1144247, “Fluorescent polycyclic ligands for nitric oxide synthase (NOS) inhibition” (Bioorg Med Chem, 2008).

A word on the IC50: it is the point on the concentration scale where inhibition reaches its midpoint. Higher therefore signals lower potency. For orientation: pIC50 means the IC50 on a negative log10 scale, so that one unit is a factor of ten.

The assay in a line: Inhibition of NOS in Sprague-Dawley rat brain by oxyhaemoglobin assay.
`N#Cc1c2ccccc2cn1C12CC3CC(CC(C3)C1)C2` displayed an IC50 of 291 nM and a pIC50 of 4.52.
The compound `O=C(NC12CC3CC(CC(C3)C1)C2)c1n[nH]c2ccccc12` returned an IC50 of 2530 nM and a pIC50 of 3.52.
Regarding `CNc1ccccc1C(=O)NC12CC3CC(CC(C3)C1)C2`, the pIC50 is reported as 2.53.
For the compound `CNc1ccccc1C(=O)OC12C3C4CC5C6C4C1C6C1(OCCCN12)C53` (centres undefined), the pIC50 is reported as 2.93.
`O=C(O)c1n[nH]c2ccccc12`: 9650 nM corresponded to half-maximal inhibition (IC50) and the pIC50 turned out to be 3.28.
`N#CSc1c2ccccc2cn1C12CC3CC(CC(C3)C1)C2` came in with a pIC50 of 3.88.
With `O=[N+]([O-])c1c2ccccc2cn1C12CC3CC(CC(C3)C1)C2`, the pIC50 came to 3.74. The pIC50 values of the last two compounds are within 0.2 log units of each other.
The compound `O=C(OC12C3C4CC5C6C4C1C6C1(OCCCN12)C53)c1n[nH]c2ccccc12` (centres undefined) came in with an IC50 of 350 nM and a pIC50 of 4.22.
In the same order, the values of `N=C(N)NN` [PIMAGEDINE] are 19400 nM and 2.72.
